Reference: PubChem BioAssay AID2060510 (Molecular Pharmacology Branch, DTP, NCI, 2025)
“And” between values parts separate entries of the source, which are not always exact repeats. Identical values can stand only once. One block for each compound: values may come before it.

Tested on: 439559-082-T-J2-PDC spheroids viability
Test: Anticancer human tumor 439559-082-T-J2-PDC patient-derived colon adenocarcinoma cell line growth inhibition [GQUAD]
Details: for viability, T/C: stronger effect = lower value
From the text: DNA G-quadruplex Stabilizer Agents in Combinations in Complex Spheroids
A high-throughput screen of multi-cell type tumor spheroids was designed to identify active combinations of DNA G-quadruplex stabilizer agents and targeted small molecules. Complex spheroids include a stromal component modeled by human endothelial cells (HUVEC) and fibroblasts modeled by human mesenchymal stem cells (MSCs). The concentration ranges selected for each drug and investigational agent were based upon clinically achievable concentrations if the clinical Cmax of the agent was known.
Compounds. The drugs and investigational agents: pidnarulex (CX-5461; NSC782164), APTO-253 (NSC789042), BRACO-19 (NSC847499), peposertib (NSC802822), ceralasertib (NSC780249), elimusertib (NSC800525), camonsertib (NSC841442), AZD-1390 (NSC803789), olaparib (NSC753686), talazoparib (NSC767125), ART-558 (NSC835418), sotorasib (NSC818433), MRTX-1133 (NSC836407), SN-38 (NSC673596), topotecan (NSC609699), etoposide (NSC141540), doxorubicin (NSC123127), gemcitabine (NSC613327), 5-fluorouracil (NSC19893), paclitaxel (NSC125973), vemurafenib (NSC761431), panobinostat (NSC761190), R-306465 (JNJ-16241199; NSC773264), adavosertib (NSC754352), TP-3654 (NSC805149), carboplatin (NSC241240), KSQ-4279 (NSC840948), and staurosporine (NSC755774) were obtained from the National Cancer Institute (NCI) Developmental Therapeutics Program Chemical Repository (34). The FDA-approved anticancer drug set is available from the NCI Developmental Therapeutics Program. […] The stock solutions were prepared in dimethyl sulfoxide (DMSO, Sigma-Aldrich, St. Louis, MO, cat. D2650) at 800-fold the tested concentration and stored at -70 degrees C prior to their use. All drugs and investigational agents were tested over a range starting from a high concentration at or near the clinical Cmax and decreasing in half-log increments. If the clinical Cmax for an agent had not been determined, the highest concentration tested was 10 microM.
2.3 Cell Culture. All cells were maintained in an incubator at 37 degrees C and 5% CO2 with 95% humidity. The PDC lines were cultured according to standard operating procedures established by the NCI PDMR. All PDCs were thawed and cultured in Matrigel-coated flasks prepared with a working solution of 1X Ham's F-12 nutrient mix, without supplementation (Invitrogen, cat. 11765054), 100 U/mL penicillin-streptomycin (Invitrogen, cat. 15140122), and 2.5% Matrigel (Corning Inc., cat. 354248) for the first three passages. The 857933-349-R-J2-PDC line was cultured in 6C/Colon 1B media, which includes advanced DMEM/F-12 (Thermo Fisher Scientific, cat. 12634028), 10 mM HEPES (Thermo Fisher Scientific, cat. 15630080), 1X GlutaMAX supplement (Thermo Fisher Scientific, cat. 35050061), 0.1 mg/mL primocin (InvivoGen, cat. ant-pm-2), 10% defined fetal bovine serum, heat inactivated (HyClone Laboratories Inc., cat. SH30070.03HI), 50% L-WRN conditioned media (ATCC, cat. CRL-3276), 1.25 mM N-Acetyl-L-cysteine (Sigma-Aldrich, cat. A9165), 10 mM nicotinamide (Sigma-Aldrich, cat. N0636), 1X B-27 supplement (Thermo Fisher Scientific, cat. 17504044), 1X N-2 supplement (Thermo Fisher Scientific, cat. 17502048), 10 microM Y-27632 dihydrochloride (Tocris Bioscience, cat. 1254), and 50 ng/mL human EGF recombinant protein (Thermo Fisher Scientific, cat. PHG0311). The 485176-168-R4-J1-PDC line was cultured in Panc media, which includes all 6C/Colon 1B media components plus 100 ng/mL human FGF-10 (Thermo Fisher Scientific, cat. 100-26), 500 nM SB-431542 (Selleckchem, cat. S1067), and gastrin (Tocris, cat. 3006).
[…]

[1] = curve of first compound, second compound 0.0316 µM
[2] = curve of first compound, second compound 0.1 µM
[3] = curve of first compound, second compound 0.316 µM
[4] = curve of first compound, second compound 1 µM
[5] = curve of first compound, second compound 3.16 µM
[6] = curve of first compound, second compound 10 µM
[7] = second compound 0.0316 µM, first compound 0.0316 µM
[8] = second compound 0.0316 µM, first compound 0.1 µM
[9] = second compound 0.0316 µM, first compound 0.316 µM
[10] = second compound 0.0316 µM, first compound 1 µM
[11] = second compound 0.0316 µM, first compound 3.16 µM
[12] = second compound 0.0316 µM, first compound 10 µM
[13] = second compound 0.1 µM, first compound 0.0316 µM
[14] = second compound 0.1 µM, first compound 0.1 µM
[15] = second compound 0.1 µM, first compound 0.316 µM
[16] = second compound 0.1 µM, first compound 1 µM
[17] = second compound 0.1 µM, first compound 3.16 µM
[18] = second compound 0.1 µM, first compound 10 µM
[19] = second compound 0.316 µM, first compound 0.0316 µM
[20] = second compound 0.316 µM, first compound 0.1 µM
[21] = second compound 0.316 µM, first compound 0.316 µM
[22] = second compound 0.316 µM, first compound 1 µM
[23] = second compound 0.316 µM, first compound 3.16 µM
[24] = second compound 0.316 µM, first compound 10 µM
[25] = second compound 1 µM, first compound 0.0316 µM
[26] = second compound 1 µM, first compound 0.1 µM
[27] = second compound 1 µM, first compound 0.316 µM
[28] = second compound 1 µM, first compound 1 µM
[29] = second compound 1 µM, first compound 3.16 µM
[30] = second compound 1 µM, first compound 10 µM
[31] = second compound 3.16 µM, first compound 0.0316 µM
[32] = second compound 3.16 µM, first compound 0.1 µM
[33] = second compound 3.16 µM, first compound 0.316 µM
[34] = second compound 3.16 µM, first compound 1 µM
[35] = second compound 3.16 µM, first compound 3.16 µM
[36] = second compound 3.16 µM, first compound 10 µM
[37] = second compound 10 µM, first compound 0.0316 µM
[38] = second compound 10 µM, first compound 0.1 µM
[39] = second compound 10 µM, first compound 0.316 µM
[40] = second compound 10 µM, first compound 1 µM
[41] = second compound 10 µM, first compound 3.16 µM
[42] = second compound 10 µM, first compound 10 µM
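Note: spheroids exposed to the agents for 7 days before readout.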
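Throughout, for viability, T/C: percent of luminescence signal in DMSO vehicle wells taken as 100% viability.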

SMILES: O=c1[nH]cc(F)c(=O)[nH]1 + Cc1[nH]c2ccc(F)cc2c1-c1nc2c3cccnc3c3ncccc3c2[nH]1
IC50 [1]: > 10000 nM
IC50 [2]: > 10000 nM
IC50 [3]: > 10000 nM
IC50 [4]: > 10000 nM
IC50 [5]: > 10000 nM
IC50 [6]: > 10000 nM
viability, T/C [7]: 90.7%
viability, T/C [8]: 95.5%
viability, T/C [9]: 87.7%
viability, T/C [10]: 78.9%
viability, T/C [11]: 76.8%
viability, T/C [12]: 82.3%
viability, T/C [13]: 101%
viability, T/C [14]: 89.8%
viability, T/C [15]: 83.3%
viability, T/C [16]: 75.1%
viability, T/C [17]: 73.3%
viability, T/C [18]: 83.4%
viability, T/C [19]: 101%
viability, T/C [20]: 99.2%
viability, T/C [21]: 83.7%
viability, T/C [22]: 74.8%
viability, T/C [23]: 79.5%
viability, T/C [24]: 76.3%
viability, T/C [25]: 91.9%
viability, T/C [26]: 96.3%
viability, T/C [27]: 79.1%
viability, T/C [28]: 72.8%
viability, T/C [29]: 70.6%
viability, T/C [30]: 72.3%
viability, T/C [31]: 103%
viability, T/C [32]: 88.8%
viability, T/C [33]: 76.5%
viability, T/C [34]: 65%
viability, T/C [35]: 62.5%
viability, T/C [36]: 59.1%
viability, T/C [37]: 82.2%
viability, T/C [38]: 81.9%
viability, T/C [39]: 67.9%
viability, T/C [40]: 59.3%
viability, T/C [41]: 57.5%
viability, T/C [42]: 59.8%

SMILES: O=C(NO)c1cnc(N2CCN(S(=O)(=O)c3ccc4ccccc4c3)CC2)nc1 + Cc1[nH]c2ccc(F)cc2c1-c1nc2c3cccnc3c3ncccc3c2[nH]1
IC50 [1]: 2100 nM
IC50 [2]: 1870 nM
IC50 [3]: 3790 nM
IC50 [4]: 2040 nM
IC50 [5]: 1350 nM
IC50 [6]: 1090 nM
viability, T/C [7]: 90.8%
viability, T/C [8]: 86%
viability, T/C [9]: 75.8%
viability, T/C [10]: 60.1%
viability, T/C [11]: 44.6%
viability, T/C [12]: 31.5%
viability, T/C [13]: 84.4%
viability, T/C [14]: 79.8%
viability, T/C [15]: 75.9%
viability, T/C [16]: 64.4%
viability, T/C [17]: 37.9%
viability, T/C [18]: 31.4%
viability, T/C [19]: 85.4%
viability, T/C [20]: 76.4%
viability, T/C [21]: 76%
viability, T/C [22]: 65%
viability, T/C [23]: 55.9%
viability, T/C [24]: 30.8%
viability, T/C [25]: 86.2%
viability, T/C [26]: 85.2%
viability, T/C [27]: 77.1%
viability, T/C [28]: 64.8%
viability, T/C [29]: 41%
viability, T/C [30]: 25.7%
viability, T/C [31]: 70.3%
viability, T/C [32]: 73.7%
viability, T/C [33]: 62.1%
viability, T/C [34]: 58.1%
viability, T/C [35]: 31.6%
viability, T/C [36]: 25.8%
viability, T/C [37]: 68.2%
viability, T/C [38]: 67.4%
viability, T/C [39]: 58.4%
viability, T/C [40]: 53.1%
viability, T/C [41]: 24.2%
viability, T/C [42]: 22.4%

IC50 (curve of compound): > 10000 nM
SMILES: CC(C)n1c(=O)n(C)c2cnc3cc(F)c(-c4ccc(OCCCN5CCCCC5)nc4)cc3c21
viability, T/C (compound 0.0316 µM): 110% and 92.9% and 102%
viability, T/C (compound 0.1 µM): 103% and 115% and 91.5%
viability, T/C (compound 0.316 µM): 117% and 111% and 110%
viability, T/C (compound 1 µM): 107% and 114% and 98.3%
viability, T/C (compound 3.16 µM): 116% and 117% and 110%
viability, T/C (compound 10 µM): 95.4% and 101% and 102%
